{"source": "patent US5877185A", "about": "“Synergistic compositions useful as anti-tumor agents” (priority 1995, dated 1999)", "key": {"[1]": {"tested_on": "L-1210 Murine Leukemia Cells", "assay": "effect of nitroso- and nitro-compounds in L-1210 murine leukemia cells (suspension)", "type": "cell-based", "settings": "drug exposure 18 hours", "protocol": "II. I50 and LD100 Values for Nitroso- and Nitro-Compounds in (A) Mammary Cancer Cells (monolayer cultures) and in (B) L-1210 Murine Leukemia Cells (suspension culture).\nCells were seeded at 5×10^4 to 2×10^5 /ml; drugs were added at the time of seeding; drug exposure was for 18 hours."}, "pADPRT": {"tested_on": "pADPRT", "assay": "pADPRT zinc content / zinc ejection", "type": "biochemical", "settings": "25° C.", "protocol": "FIG. 2A is a graph comparing the effects of NOBA and INOBA on the enzyme activity and zinc content of pADPRT. Inactivation was performed as described in Example III. In these experiments ^65 Zn^2+ -labeled pADPRT was used. The Zn^2+ content of pADPRT (upper panel) was determined as follows: two parallels of aliquots (4 μl) were pipetted into 500 μl of ice-cold washing solution (50 mM Tris, pH 7.7, 10 mM 2-mercaptoethanol and 0.5 mM EDTA) then filtered onto GF/C disks presoaked in washing solution (cold), quickly washed 4 times with 1 ml of ice-cold washing solution, dried, and the radioactivity determined. The protein-bound ^65 Zn^2+ is shown as percent of the untreated sample. Enzyme assays (lower panel) were performed as in FIG. 1.\nFor the release of Zn^2+ from transblotted pADPRT, the enzyme (3 μg per lane) was separated on SDS-PAGE, transblotted onto a nitrocellulose membrane, and renatured in the presence of ^65 ZnCl2. […] After incubation, 1 ml of the supernatant was counted for radioactivity, and the strips were washed 3 times with 2 ml of 50 mM Tris-HCl pH 7.4), 0.5 mM EDTA and 10 Mm 2-mercaptoethanol, and then dried and exposed to X-ray film. The intensity of the autoradiographic spots was quantitated by a scanner. […]"}, "[2]": {"tested_on": "leukemic and other malignant human cells", "settings": "cited from earlier work"}, "[3]": {"tested_on": "normal bone marrow progenitor cells", "settings": "tumoricidal concentrations; cited from earlier work"}, "E ras cells": {"tested_on": "E ras cells", "assay": "cytostatic and cytocidal activity", "type": "cell-based, bovine", "settings": "Bos taurus, average of three trials", "from_the_text": "pADPRT ligands that oxidize CCHC zinc fingers are not unique inhibitors of pADPRT. […] Hakam et al., FEBS Lett. 193:1-4 (1991). These ligands bind non-covalently to the nicotinamide site and internal DNA-seeking domains of pADPRT. Bauer et al., manuscript in preparation (1994). In contrast, CCHC-oxidizing ligands also bind non-covalently to the nicotinamide site, but initially attack the F1 zinc finger oxidatively. Id. […] Id. […] U.S. Ser. No. 08/076,313 filed Jun. 11, 1993.\nEach value is the average of three trials. Each trial deviated from the average by no more than twenty percent. […] Another isomer of the iodo-nitro-benzamide series, 2-iodo-4-nitrobenzamide had no effect at the concentrations given above."}, "MDA-468": {"tested_on": "MDA-468", "assay": "cytotoxicity of INO2 BA with and without BSO, MDA-468", "type": "cell-based", "settings": "Homo sapiens", "protocol": "(§1) The concentration of BSO was 1 mM for all cell lines except HT 144, where the concentration was 0.25 mM. Cells were seeded in the recommended growth medium at a density of 1.5×10^4 cell/cm^2 into 2 cm^2 wells. Drugs were added simultaneously 4 hours after seeding, and incubation was continued for 48 hours at 37° C. in a 5% CO2 atmosphere. For assessment of drug effects cells were detached by trypsinization and counted in a hemacytometer.\n(§2) Cell lines Nos. 1-4 were obtained from Dr. C. Benz, University of California, San Francisco. MDA 468 and MCF-7 human mammary cancer lines, MCF-7-B-ADR drug-resistant mammary cancer line, Du 145 drug-resistant human prostate cancer line, HT 144 human melanoma cell line, Hep-G2 human hepatocellular carcinoma line, and PC-12 rat pheochromocytoma line were obtained from the University of California Cell Culture Facility."}, "MCF-7": {"tested_on": "MCF-7", "assay": "cytotoxicity of INO2 BA with and without BSO, MCF-7", "type": "cell-based", "settings": "Homo sapiens", "protocol": "as §1, §2"}, "PC-12": {"tested_on": "PC-12", "assay": "cytotoxicity of INO2 BA with and without BSO, PC-12", "type": "cell-based", "settings": "Rattus norvegicus, INO2 BA alone, 48 hours", "protocol": "as §1, §2"}, "L 1210": {"tested_on": "L 1210", "assay": "cytotoxicity of INO2 BA with and without BSO, L 1210", "type": "cell-based, murine", "settings": "Mus musculus, L1210, INO2 BA alone, 48 hours", "protocol": "as §1, §2"}, "HL 60": {"tested_on": "HL 60", "assay": "cytotoxicity of INO2 BA with and without BSO, HL 60", "type": "cell-based", "settings": "Homo sapiens, INO2 BA alone, 48 hours", "protocol": "as §1, §2"}, "[4]": {"assay": "non-toxicity in hamsters, intraperitoneal", "type": "in vivo"}, "L 1210 cells": {"tested_on": "L 1210 cells", "assay": "cytotoxic effect of IABP and INO2 BA, alone and combined, on L 1210 cell growth", "type": "cell-based, murine", "settings": "Mus musculus, L1210, 72 h; INO2 BA 64 μM, three days; read-out: decrease of L 1210 cell proliferation", "protocol": "64 μM INO2 BA decreased L 1210 cell proliferation by approximately 80% over a three day growth period."}}, "note": "Where two headings read alike, the source gives them in different places.", "data": [{"smiles": "NC(=O)c1cccc(N=O)c1", "note": "[NOBA, 3-nitrosobenzamide]", "values": [{"measurement": "I50", "setting": "[1]", "result": 7.5, "unit": "nanomoles/10^5 cells"}, {"measurement": "LD100", "setting": "[1]", "result": 15, "unit": "nanomoles/10^5 cells"}, {"measurement": "time in which zinc ejection was complete", "setting": "pADPRT", "result": "≤ 2", "unit": "h"}, {"measurement": "suppression of proliferation", "setting": "[2]", "result": "completely suppressed"}, {"measurement": "effect on normal bone marrow progenitor cells", "setting": "[3]", "result": "relatively harmless"}]}, {"smiles": "NC(=O)c1ccc(I)c([N+](=O)[O-])c1", "note": "[INO2 BA, 4-iodo-3-nitrobenzamide]", "values": [{"measurement": "IC50", "setting": "E ras cells; E ras cells, read-out: Cytostatic Effect I50", "result": 60, "unit": "µM"}, {"measurement": "IC50", "setting": "E ras cells; with 0.8 mM BSO, read-out: Cytocidal Effect I50", "result": 4, "unit": "µM"}, {"measurement": "IC100", "setting": "MDA-468; 48 h, read-out: LD100", "result": 180, "unit": "µM"}, {"measurement": "IC50", "setting": "MDA-468; INO2 BA alone, 48 hours, read-out: I50", "result": 80, "unit": "µM"}, {"measurement": "IC100", "setting": "MCF-7; MCF7, 48 h, read-out: LD100", "result": 200, "unit": "µM"}, {"measurement": "IC50", "setting": "MCF-7; MCF7, INO2 BA alone, 48 hours, read-out: I50", "result": 100, "unit": "µM"}, {"measurement": "IC50", "setting": "PC-12; read-out: I50", "result": 60, "unit": "µM"}, {"measurement": "IC100", "setting": "PC-12; read-out: LD100", "result": 120, "unit": "µM"}, {"measurement": "IC50", "setting": "L 1210; read-out: I50", "result": 128, "unit": "µM"}, {"measurement": "IC100", "setting": "L 1210; read-out: LD100", "result": 256, "unit": "µM"}, {"measurement": "IC50", "setting": "HL 60; read-out: I50", "result": 70, "unit": "µM"}, {"measurement": "IC100", "setting": "HL 60; read-out: LD100", "result": 125, "unit": "µM"}, {"measurement": "toxic effects", "setting": "[4]; 200 mg/kg intraperitoneally daily for 12 days", "result": "no toxic effects"}, {"measurement": "toxic effects", "setting": "[4]; 200 mg/kg intraperitoneally daily for 14 days, twelve hamsters", "result": "without toxic effects"}, {"measurement": "inhibition at 64 µM", "setting": "L 1210 cells", "result": "~80", "unit": "%"}]}]}
